Results reported in patent publication US20010053783A1, “PHARMACEUTICAL COMPOUNDS” (priority 1997, published 2001).

Target: human 2A receptor (5-HT2A) (Homo sapiens, UniProt P28223)
Assay: 5-HT2A receptor binding, displacement of [3H] ketanserin (Nelson et al.)
Conditions: human 2A receptor binding, versus 5-fluoroindolyl propyl comparator
Source text: As mentioned above, the compounds of the invention are active at the serotonin, 5-HT2A, receptor.

Sequence of human 2A receptor (5-HT2A) (P28223 whole entry): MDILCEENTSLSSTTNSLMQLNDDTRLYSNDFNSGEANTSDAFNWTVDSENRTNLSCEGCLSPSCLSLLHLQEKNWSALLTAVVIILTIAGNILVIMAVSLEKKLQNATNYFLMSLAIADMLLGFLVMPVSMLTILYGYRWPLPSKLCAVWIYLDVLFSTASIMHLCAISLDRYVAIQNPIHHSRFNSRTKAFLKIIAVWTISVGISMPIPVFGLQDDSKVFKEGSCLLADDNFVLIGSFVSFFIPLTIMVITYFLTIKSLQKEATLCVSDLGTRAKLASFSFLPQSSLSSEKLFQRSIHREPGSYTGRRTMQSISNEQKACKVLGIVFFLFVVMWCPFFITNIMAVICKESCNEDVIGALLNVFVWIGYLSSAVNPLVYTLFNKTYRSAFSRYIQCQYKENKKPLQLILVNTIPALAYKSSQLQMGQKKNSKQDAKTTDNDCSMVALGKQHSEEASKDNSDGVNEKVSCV

## O=S1(=O)N(CCN2CC=C(c3c[nH]c4cc(F)ccc34)CC2)c2cccc3c2N1CCC3 [1-{2-[4-(6-Fluoro-[1H]-indol-3-yl)-1,2,3,6-tetrahydro-1-pyridinyl]-1-ethyl}-5,6-dihydro-1H,4H-1,2,5-thiadiazolo[4,3,2-ij]quinoline-2,2-dioxide]
  times more active than the closest structurally related compound of EP-A 0 433 149: approximately twenty-eight
